PubChem BioAssay AID2060344 (Molecular Pharmacology Branch, DTP, NCI, 2025)
Values joined by “and” are separate entries in the source; they are usually repeats but may differ in a detail not shown here. Identical values can stand only once. Values belong to the compound of their own block, whether it stands above or below them.

Test system: SK-MEL-2 multi-cell spheroids, viability
Experiment: Anticancer human tumor SK-MEL-2 cell line growth inhibition [TAK];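 note: spheroids exposed to drugs for seven days before readout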;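 for viability, T/C: percent of DMSO vehicle control luminescence so 100% = untreated viability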
Details: for viability, T/C: stronger effect = lower value
Source text: Combinatorial screen of targeted agents with TAK-243 and ipatasertib in multi-cell type tumor spheroids
A high-throughput screen of multi-cell type tumor spheroids was designed to identify active combinations of targeted small molecules and TAK-243 or ipatasertib. Complex spheroids include a stromal component modeled by human endothelial cells (HUVEC) and fibroblasts modeled by human mesenchymal stem cells (MSCs). The concentration ranges selected for each drug and investigational agent were based upon clinically achievable concentrations if the clinical Cmax of the agent was known.
Compounds. The drugs and investigational agents: TAK-243 (785004), ipatasertib (767898), everolimus (733504), selumetinib (741078), bortezomib (756655), trametinib (758246), ixazomib (758254), vemurafenib (761431), dabrafenib (764134), sapanisertib (764658), alpelisib (765974), and copanlisib (816437), were obtained from the National Cancer Institute (NCI) Developmental Therapeutics Program Chemical Repository. The FDA-approved anticancer drug set is available from the NCI Developmental Therapeutics Program. […] The stock solutions were prepared in dimethyl sulfoxide (DMSO, Sigma-Aldrich, St. Louis, MO, cat. D2650) at 800-fold the tested concentration and stored at -70 degrees C prior to their use. All drugs and investigational agents were tested over a range starting from a high concentration at or near the clinical Cmax and decreasing in half-log increments. If the clinical Cmax for an agent had not been determined, the highest concentration tested was 10 microM.
NCI60 Cell Culture. NCI60 cell lines were obtained from the NCI Developmental Therapeutics Program Tumor Repository. For each lot of cells, the Repository performed Applied Biosystems AmpFLSTR Identifiler testing with PCR amplification to confirm consistency with the published Identifier STR profile for each cell line. Cells were kept in continuous culture for no more than 20 passages. The optimal seeding densities for each of the cell lines at each time point assessed were determined prior to performing the concentration response studies. Briefly, the NCI60 human tumor lines were grown as monolayers in RPMI 1640 medium supplemented with 10% FBS and 2 mmol/L L-glutamine.
An additional 2 lines were from the NCI60 cell line panel including melanomas, MALME-3M and SK-MEL-2. Pooled donor human umbilical vein endothelial cells (HUVEC, Lonza, cat. CC-2519) and human mesenchymal stem cells (hMSC, Lonza, cat. PT-2501) were purchased from Lonza (Walkersville, MD).
PDMR cell lines were grown in complete medium (DC medium): Dulbecco's modified Eagle's medium (DMEM)/F12 supplemented with 5% fetal bovine serum (FBS), 2 mM L-glutamine, 100 U/mL penicillin and 100 µg/ml streptomycin, 0.4 µg/ml hydrocortisone, 10 ng/ml epidermal growth factor (EGF) recombinant human protein, 24 µg/mL adenine, and 0.1 mg/mL primocin. During culture from frozen stock vials, PDMR cells were cultured in the same medium containing 10 µM Y-27632 (see Table 3). The PDCs were cultured in complete DMEM/F12 media without 10 microM Y-27632 dihydrochloride for at least two passages prior to the screen. The pooled donor HUVEC and hMSC were cultured in endothelial cell growth medium 2 (PromoCell, Heidelberg, Germany, cat. C-22011) and mesenchymal stem cell growth medium 2 (PromoCell, cat. C-28009), respectively. For all experiments, HUVEC and hMSC were used at passages </=5.
For the pre-screen, cell seeding densities were determined from a titration spanning the range from 5,000 to 313 cells per well. The mct-spheroids including 60% malignant cells, 25% HUVEC and 15% MSC dispensed as a mixture into U-bottom Ultra-Low Attachment 384-well plates (Corning, NY)
High-throughput Drug Combination Screening.
Prior to their inoculation into 384-well plates, malignant cells, HUVEC, and hMSC were removed from T flasks using TrypLE express (Thermo Fisher Scientific, cat. 12605036) and harvested by centrifugation for 5 min at 233 x g. […]

SMILES: CC(C)(C)c1nc(-c2cccc(NS(=O)(=O)c3c(F)cccc3F)c2F)c(-c2ccnc(N)n2)s1
viability, T/C (compound 0.0316 µM): 137% and 126% | viability, T/C (compound 0.1 µM): 126% and 122% | viability, T/C (compound 0.316 µM): 82.3% and 76.3% | viability, T/C (compound 1 µM): 28.8% and 32% | viability, T/C (compound 3.16 µM): 13.3% and 16.8% | viability, T/C (compound 10 µM): 18.9% and 22.2% | IC50 (curve of compound): 631 nM and 615 nM

SMILES: CC(C)CC(NC(=O)C(Cc1ccccc1)NC(=O)c1cnccn1)B(O)O (stereo not given)
viability, T/C (compound 31.6 pM): 117% and 109% | viability, T/C (compound 0.0001 µM): 96.5% and 94.3% | viability, T/C (compound 0.000316 µM): 101% and 98.5% | viability, T/C (compound 0.001 µM): 113% and 109% | viability, T/C (compound 0.00316 µM): 114% and 110% | viability, T/C (compound 0.01 µM): 88.5% and 99.6% | IC50 (curve of compound): > 10 nM

SMILES: CC(C)NCC(C(=O)N1CCN(c2ncnc3c2C(C)CC3O)CC1)c1ccc(Cl)cc1 (stereo not given)
IC50 (compound alone, run of 02/20/2020): > 30000 nM

SMILES: CCCS(=O)(=O)Nc1ccc(F)c(C(=O)c2c[nH]c3ncc(-c4ccc(Cl)cc4)cc23)c1F
viability, T/C (compound 0.316 µM): 105% and 130% | viability, T/C (compound 1 µM): 102% and 129% | viability, T/C (compound 3.16 µM): 103% and 113% | viability, T/C (compound 10 µM): 83% and 41.8% | viability, T/C (compound 31.6 µM): 117% and 58.2% | viability, T/C (compound 100 µM): 106% and 71.2% | IC50 (curve of compound): > 100000 nM

SMILES: COC1CC2CCC(C)C(O)(O2)C(=O)C(=O)N2CCCCC2C(=O)OC(C(C)CC2CCC(OCCO)C(OC)C2)CC(=O)C(C)C=C(C)C(O)C(OC)C(=O)C(C)CC(C)C=CC=CC=C1C (stereo not given)
viability, T/C (compound 0.000316 µM): 85% and 118% | viability, T/C (compound 0.001 µM): 66.2% and 89% | viability, T/C (compound 0.00316 µM): 57.4% and 74.4% | viability, T/C (compound 0.01 µM): 55.8% and 73.2% | viability, T/C (compound 0.0316 µM): 52.8% and 58.8% | viability, T/C (compound 0.1 µM): 47.7% and 69.9% | IC50 (curve of compound): > 100 nM

Further lines, with some results ahead:

IC50 (curve of compound): 0.242 nM and 0.22 nM
SMILES: CC(=O)Nc1cccc(-n2c(=O)n(C3CC3)c(=O)c3c(Nc4ccc(I)cc4F)n(C)c(=O)c(C)c32)c1
viability, T/C (compound 94.9 pM): 91% and 88.6% | viability, T/C (compound 0.0003 µM): 40.3% and 35.3% | viability, T/C (compound 0.000949 µM): 17.9% and 15.7% | viability, T/C (compound 0.003 µM): 6.38% and 5.17% | viability, T/C (compound 0.00949 µM): 3.87% and 4.14% | viability, T/C (compound 0.03 µM): 2.42% and 3.1%

IC50 (curve of compound): 18.5 nM and 18.1 nM
SMILES: CC(C)CC(NC(=O)CNC(=O)c1cc(Cl)ccc1Cl)B1OC(=O)CC(CC(=O)O)(C(=O)O)O1 (stereo not given)
viability, T/C (compound 0.000316 µM): 110% and 95.1% | viability, T/C (compound 0.001 µM): 94.6% and 97.2% | viability, T/C (compound 0.00316 µM): 98% and 93.9% | viability, T/C (compound 0.01 µM): 79.3% and 75.7% | viability, T/C (compound 0.0316 µM): 24.6% and 26% | viability, T/C (compound 0.1 µM): 6.45% and 4.25%

IC50 (curve of compound): 41 nM and 41.1 nM
SMILES: CC(C)n1nc(-c2ccc3oc(N)nc3c2)c2c(N)ncnc21
viability, T/C (compound 0.000316 µM): 109% and 105% | viability, T/C (compound 0.001 µM): 99.8% and 100% | viability, T/C (compound 0.00316 µM): 88.6% and 89.8% | viability, T/C (compound 0.01 µM): 86.9% and 76% | viability, T/C (compound 0.0316 µM): 52.2% and 55.5% | viability, T/C (compound 0.1 µM): 29.2% and 31.2%
